Test results as given in paper PMC10052652 (Molecules, 2023).
Like-named read-outs stand apart in the source and are kept apart here.

What was measured:
[1] = DPPH radical scavenging assay
Method: DPPH• (1-1-diphenyl 2-picryl hydrazyl) assay
This method is based on the spectrophotometric assay using the stable radical, DPPH•, as a reagent. First, 20 µL of each sample (4 mg/mL) was mixed with 180 µL of 0.1 mM DPPH• in methanol, in plates, after an incubation of 25 min in the dark. Absorbance was measured at 517 nm. Ascorbic acid was used as the reference compound. The radical-scavenging activities of molecules, expressed as a percentage inhibition of DPPH•, were calculated according to the following formula: Inhibition (%) = [(A control − A sample)/A control] × 100 where A is the absorbance determined at 517 nm. The absorbance of the solvent and DPPH• radical without the molecule was measured as the control.

[2] = ABTS radical cation scavenging assay; conditions: for ABTS Assay %: at 100 µM
Method: ABTS (2,2′-azinobis-3-ethylbenzothiazoline-6-sulfonate) assay
The radical scavenging capacity of antioxidants for the ABTS radical cation was evaluated following this method: ABTS was prepared by adding 7 mM solution of ABTS at pH 7.4 (5 mM NaH2PO4, 5 mM Na2HPO4, and 154 mM NaCl) with 2.5 mM potassium persulfate. The mixture was stored at room temperature for 16 h in the dark before use and prepared […]. Once diluted with persulfate buffer, the absorbance of the mixture yielded an absorbance value of 0.70 ± 0.05 units at 734 nm. Then, 20 µL of each tested sample was mixed with fresh ABTS solution (180 µL), then the absorbance was measured 6 min after the initial mixing. Ascorbic acid was used as a standard. The capacity of free radical scavenging was expressed as a percentage of the inhibition values. The percentage of inhibition is calculated using the same expression employed in the DPPH assay.

[3] = molecular target: T1, acetylcholinesterase (AChE) (Homo sapiens, UniProt P22303); assay: biochemical
Method: The enzymatic activity was assessed via a modified colorimetric Ellman′s method. First, 50 µL of Tris-HCl buffer (pH 8), 25µL of a buffer solution of the sample (50 µg/mL), and 25 µL of an acetylcholinesterase (AChE) enzyme solution containing 2.8 U/mL were mixed. A reaction was then initiated via the addition of 125 µL of 3 mM […]. After incubation for 15 min at 25 °C, 25 µL of a solution of iodide acetylthiocholine15 mM was added to a 96-well microplate. […] Inhibition (%) was calculated in the following way: Inhibition (%) = [(A control − A sample)/A control] × 100, where (A sample) is the absorbance of the molecule containing the reaction and (A control) is the absorbance of the reaction control. Tests were carried out in triplicate.

[4] = molecular target: T2, superoxide dismutase (SOD) (Homo sapiens, UniProt P00441); assay: biochemical; conditions: read-out: Anti SOD IC50
Method: Pyrogallol auto-oxidation due to oxygen in the air can be inhibited by an enzyme that is naturally present in the body: superoxide dismutase (SOD). Furthermore, variations in the pyrogallol auto-oxidation rate in the presence of SOD were evaluated. Tests were carried out in triplicate. The objective was to find an inhibitor of the auto-oxidation of pyrogallol in the presence of a SOD enzyme solution. Samples were tested at a concentration of 50 µg/mL, followed by incubation for 4 min at 25 °C. […] The self-oxidation of pyrogallol was evaluated in the absence of the enzyme. For this, 30 µL of pyrogallol was added to 120 µL of tris buffer (in place of the SOD) (pH 8.5), then followed by the same steps of incubating a positive control (without the molecule); this was performed in the presence of 5% of DMSO to evaluate the percentage of SOD inhibition activity on the auto-oxidation of pyrogallol.

xanthine oxidase (XOD) [5] = molecular target: T3, xanthine oxidase (XOD) (Homo sapiens, UniProt P47989); assay: biochemical; conditions: read-out: Anti XOD IC50
Method: Anti-xanthine oxidase activity was assayed spectrophotometrically under aerobic conditions. First, 50 µL (50 µg/mL) of samples were added to 60 µL of phosphate buffer (pH 7.5) and 30 µL of xanthine oxidase enzyme solution (0.01 units/mL in phosphate buffer; pH 7.5). After pre-incubation at 25 °C for 15 min, the reaction was initiated by the addition of 60 µL of xanthine substrate solution (prepared in the same buffer). The assay mixture was incubated at 25 °C for 5 min. […] The assay was performed in triplicate. […] Tests were carried out in triplicate.

HCT116 cells = assay: Cytotoxic activity, MTT assay, HCT116; format: cell-based, human; conditions: Homo sapiens, HCT-116, 72 h, read-out: IC50 HCT116, MTT, 72 h
Method: (§1) The cancer cell lines used in this study were HCT116 (colorectal carcinoma), IGROV1 (ovarian cancer), OVCAR3 (ovarian cancer), and MCF7 (mammary gland/breast cancer). […] Cell lines were maintained in culture and were incubated at 37 °C in an incubator with 5% CO2 in a humidified atmosphere. All tests were established at 80% of confluence, and viability was estimated with a trypan blue exclusion assay.
(§2) The cytotoxic activities of molecules against cancer cell lines were evaluated using an MTT assay. The MTT colorimetric assay was performed using 96-well plates. Cells were seeded in a 96-well plate, at a concentration of 10 × 10^3 cells/well for HCT116 and 12 × 10^3 cells/well for MCF7, IGROV1, and OVAR. Adherent cells were dispatched and incubated at 37 °C overnight in a 5% CO2-enriched atmosphere. […] After that, the medium was removed, and cells were treated with 50 µL of 3-(4,5-dimethylthazolk-2-yl)-2,5-diphenyl tetrazolium bromide (MTT) solution (3 mg/mL in PBS) at 37 °C for 20 to 40 min. To dissolve the […], we added 80 µL of 100% DMSO. Optical density was measured at 540 nm. All tests were established in triplicate. […]

MCF7 cells = assay: Cytotoxic activity, MTT assay, MCF7; format: cell-based, human
Method: Optical density was measured at 540 nm. All tests were established in triplicate.

OVCAR-3 cells = assay: Cytotoxic activity, MTT assay, OVCAR-3; format: cell-based; conditions: Homo sapiens, OVCAR-3, 72 h, read-out: IC50 OVCAR-3
Method: as §1, §2

SKOV-3 cells = assay: Cytotoxic activity, MTT assay, SKOV-3; format: cell-based, human
[6] = molecular target: T1, acetylcholinesterase (AChE); format: biochemical; conditions: at 100 µM
[7] = molecular target: T2, superoxide dismutase (SOD); format: biochemical; conditions: at 100 µM
xanthine oxidase (XOD) [8] = molecular target: T3, xanthine oxidase (XOD); format: biochemical; conditions: at 100 µM
α-amylase = molecular target: T4, α-amylase (Homo sapiens, UniProt P04746); assay: Anti-α-amylase activity (starch/DNS); conditions: for Anti α-Amylase %: at 100 µM
T4 sequence (P04746 16-511): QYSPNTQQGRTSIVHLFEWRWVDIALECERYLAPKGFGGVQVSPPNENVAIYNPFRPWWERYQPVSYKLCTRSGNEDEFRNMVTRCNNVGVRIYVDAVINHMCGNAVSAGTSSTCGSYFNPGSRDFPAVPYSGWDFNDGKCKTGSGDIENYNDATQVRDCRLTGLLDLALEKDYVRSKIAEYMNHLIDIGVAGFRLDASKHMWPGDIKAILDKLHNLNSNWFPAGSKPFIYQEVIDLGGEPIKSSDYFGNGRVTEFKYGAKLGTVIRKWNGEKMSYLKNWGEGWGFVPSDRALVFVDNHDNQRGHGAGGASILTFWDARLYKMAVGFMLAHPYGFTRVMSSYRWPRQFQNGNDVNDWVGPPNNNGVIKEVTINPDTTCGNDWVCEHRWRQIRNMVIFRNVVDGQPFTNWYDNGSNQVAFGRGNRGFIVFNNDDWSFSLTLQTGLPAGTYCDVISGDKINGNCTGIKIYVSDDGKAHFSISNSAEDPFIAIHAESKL
Method: The α-amylase inhibitory activity (%) value was defined as the percentage decrease in the maltose production rate over the control. […] After 15 min, this mixture was removed from the water bath and diluted with 900 µL of distilled water. The anti-α-amylase activity was determined by measuring the absorbance at 540 nm. Blank incubations were determined as the absorbance produced by samples where the enzyme was replaced with a buffer solution. […] The IC50 values were calculated from the mean values of the percentage of α--amylase inhibition data, determined in triplicate.

[9] = Homo sapiens, SK-OV-3, 72 h, read-out: IC50 SKOV-3, MTT, 72 h
[10] = read-out: IC50 SKOV-3, MTT, 72 h

T2 sequence (P00441 whole entry): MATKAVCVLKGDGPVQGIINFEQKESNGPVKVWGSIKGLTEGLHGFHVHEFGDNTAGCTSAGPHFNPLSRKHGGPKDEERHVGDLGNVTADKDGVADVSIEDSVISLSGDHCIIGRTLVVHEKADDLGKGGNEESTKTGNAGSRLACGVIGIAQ
T1 sequence (P22303 32-614, species assumed): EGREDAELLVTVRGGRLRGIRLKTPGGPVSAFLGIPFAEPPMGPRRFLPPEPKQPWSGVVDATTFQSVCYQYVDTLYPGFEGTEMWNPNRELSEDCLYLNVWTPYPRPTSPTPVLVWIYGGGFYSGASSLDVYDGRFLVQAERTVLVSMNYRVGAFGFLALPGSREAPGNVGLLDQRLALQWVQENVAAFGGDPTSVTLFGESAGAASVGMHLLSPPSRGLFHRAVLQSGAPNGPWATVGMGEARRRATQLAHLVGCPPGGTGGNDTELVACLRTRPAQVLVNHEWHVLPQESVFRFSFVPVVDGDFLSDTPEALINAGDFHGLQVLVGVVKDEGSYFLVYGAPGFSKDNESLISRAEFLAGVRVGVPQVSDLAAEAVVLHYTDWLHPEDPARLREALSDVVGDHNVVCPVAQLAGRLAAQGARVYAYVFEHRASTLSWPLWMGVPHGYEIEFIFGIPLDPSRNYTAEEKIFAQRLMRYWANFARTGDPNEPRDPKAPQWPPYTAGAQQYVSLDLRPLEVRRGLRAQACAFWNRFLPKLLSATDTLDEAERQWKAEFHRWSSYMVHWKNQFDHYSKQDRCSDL
T3 sequence (P47989 whole entry, species assumed): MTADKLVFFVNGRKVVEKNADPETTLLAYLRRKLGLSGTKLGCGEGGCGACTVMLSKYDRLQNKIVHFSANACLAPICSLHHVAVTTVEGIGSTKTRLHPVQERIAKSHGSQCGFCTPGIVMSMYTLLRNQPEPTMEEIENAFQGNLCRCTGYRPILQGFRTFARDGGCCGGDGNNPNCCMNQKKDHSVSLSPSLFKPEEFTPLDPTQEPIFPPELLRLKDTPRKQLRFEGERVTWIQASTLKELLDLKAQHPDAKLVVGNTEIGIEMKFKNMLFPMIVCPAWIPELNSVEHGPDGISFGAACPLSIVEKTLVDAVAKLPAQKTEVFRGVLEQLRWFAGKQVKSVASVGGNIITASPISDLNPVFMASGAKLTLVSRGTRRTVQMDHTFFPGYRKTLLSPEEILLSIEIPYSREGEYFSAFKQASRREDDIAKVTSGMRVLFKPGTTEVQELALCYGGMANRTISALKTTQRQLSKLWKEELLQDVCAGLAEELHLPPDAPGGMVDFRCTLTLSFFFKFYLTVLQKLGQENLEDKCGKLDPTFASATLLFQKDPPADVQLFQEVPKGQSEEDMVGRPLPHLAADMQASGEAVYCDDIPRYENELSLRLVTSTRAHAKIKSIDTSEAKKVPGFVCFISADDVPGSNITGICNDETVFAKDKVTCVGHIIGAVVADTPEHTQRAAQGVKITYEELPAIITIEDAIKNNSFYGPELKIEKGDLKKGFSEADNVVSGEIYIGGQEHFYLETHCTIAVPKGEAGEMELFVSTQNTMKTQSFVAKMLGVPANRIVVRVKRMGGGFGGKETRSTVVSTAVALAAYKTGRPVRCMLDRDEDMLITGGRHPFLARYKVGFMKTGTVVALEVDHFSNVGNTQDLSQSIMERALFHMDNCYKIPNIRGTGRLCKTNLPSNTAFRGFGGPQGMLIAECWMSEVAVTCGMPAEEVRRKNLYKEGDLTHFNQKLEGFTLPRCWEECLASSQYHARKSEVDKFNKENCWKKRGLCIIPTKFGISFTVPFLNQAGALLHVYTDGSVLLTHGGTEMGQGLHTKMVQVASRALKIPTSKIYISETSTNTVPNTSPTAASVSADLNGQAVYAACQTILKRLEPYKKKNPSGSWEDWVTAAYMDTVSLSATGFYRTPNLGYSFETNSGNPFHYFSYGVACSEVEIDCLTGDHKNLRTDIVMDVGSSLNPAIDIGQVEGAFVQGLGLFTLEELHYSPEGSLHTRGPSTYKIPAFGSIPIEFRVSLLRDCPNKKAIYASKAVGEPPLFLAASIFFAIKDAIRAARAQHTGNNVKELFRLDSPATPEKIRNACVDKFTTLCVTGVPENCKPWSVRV

Compound	IC50 [1]	IC50 [2]	IC50 ([3]; read-out: Anti ACHE IC50)	IC50 [4]	IC50 (xanthine oxidase (XOD) [5])	IC50 (HCT116 cells)	IC50 (MCF7 cells; Homo sapiens, MCF7, 72 h)	IC50 (OVCAR-3 cells)	IC50 (SKOV-3 cells; [9])	Anti ACHE % [6]	Anti SOD % [7]	Anti XOD % (xanthine oxidase (XOD) [8])	IC50 (α-amylase)	ABTS Assay % [2]	IC50 (MCF7 cells; 72 h)	IC50 (SKOV-3 cells; [10])	Anti α-Amylase % (α-amylase)	IC50 [3]
Cc1ccc2oc(-c3cccc(O)c3)cc(=O)c2c1 [Molecule M16, 3′-hydroxy-6-methylflavone]	> 100 µM	> 50 µM	> 50 µM	> 100 µM	2 ± 0.1 µM	> 100 µM	> 100 µM	> 50 µM	42.1 ± 1.5 µM	59.1 ± 1.5%	27.3 ± 3.2%	83.5 ± 3.8%	> 100 µM	–	–	–	–	–
O=c1cc(-c2cccc(O)c2)oc2cccc(O)c12 [Molecule M14, 5,3′-dihydroxyflavone]	> 100 µM	> 100 µM	> 50 µM	> 100 µM	2 ± 0.1 µM	–	> 100 µM	> 50 µM	> 100 µM	55.0 ± 1.9%	5.7 ± 2.5%	71.3 ± 4.7%	6.7 ± 0.9 µM	16.9 ± 0.3%	> 50 µM	> 50 µM	109.6 ± 1.7%	–
Cc1cccc(COc2cc(O)c3c(=O)cc(-c4ccccc4)oc3c2)c1 [Molecule M15, 5-hydroxy-7-((3-methylbenzyl)oxy)-2-phenyl-4h-chromen-4-one]	> 100 µM	> 100 µM	> 50 µM	> 100 µM	> 100 µM	> 50 µM	> 50 µM	45.6 ± 1.4 µM	> 50 µM	55.3 ± 2.7%	26.5 ± 3.3%	–	> 100 µM	25.6 ± 0.7%	–	–	46.2 ± 4.4%	–
Cc1ccc(-c2cc(=O)c3cc(O)ccc3o2)cc1 [Molecule M17, 6-hydroxy-4′-methylflavone]	> 100 µM	> 50 µM	> 50 µM	> 50 µM	0.8 ± 0.1 µM	40.4 ± 1.2 µM	> 50 µM	> 50 µM	43.8 ± 0.9 µM	50.8 ± 4.1%	80.9 ± 0.2%	67.7 ± 2.1%	> 100 µM	–	–	–	–	–
COc1cccc(-c2cc(=O)c3c(O)cccc3o2)c1 [Molecule M11, 5-hydroxy-3′-methoxyflavone]	> 100 µM	> 100 µM	> 50 µM	> 100 µM	> 100 µM	> 50 µM	> 100 µM	> 50 µM	> 100 µM	52.6 ± 4.2%	9.4 ± 3.1%	–	8.3 ± 0.2 µM	17.7 ± 0.7%	–	> 50 µM	124.8 ± 15.3%	–
CC1OC(OCC2OC(Oc3c(-c4ccc(OCCO)c(OCCO)c4)oc4cc(OCCO)cc(O)c4c3=O)C(O)C(O)C2O)C(O)C(O)C1O (centres unmarked) [Molecule M6, trihydroxyethylrutin]	> 100 µM	24.5 ± 0.1 µM	–	> 50 µM	> 100 µM	> 50 µM	> 50 µM	> 50 µM	> 50 µM	33.7 ± 3.7%	53.7 ± 2.1%	–	> 100 µM	–	–	–	49.4 ± 5.1%	> 100 µM
O=C1O[C@H]([C@@H](O)CO)C(O)=C1O [Vitamin C, Ascorbic acid, reference compound]	2.3 ± 0.2 µM	2.2 ± 0.2 µM	–	–	–	–	–	–	–	–	–	–	–	–	–	–	–	–
